From PubChem BioAssay (NCI)
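Growth conditions: 96-well plates. Treatment: test compound, 48 hours, 5 concentrations. Analysis: linear interpolation between bracketing concentrations; unreached endpoints set to highest concentration. The concentration for full growth arrest is given as TGI.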

Tests used:
Assay in all cases: inhibition of tumour cell growth, NCI panel, 48 h
HT29 colon = system: HT29 colon
RXF 393 renal = system: RXF 393 renal
OVCAR-5 ovarian = system: OVCAR-5 ovarian
COLO 205 colon = system: COLO 205 colon
MALME-3M melanoma = system: MALME-3M melanoma
NCI-H226 lung = system: NCI-H226 lung
NCI-H522 lung = system: NCI-H522 lung
A549 NSCLC = system: A549 NSCLC
NCI-H23 lung = system: NCI-H23 lung
SF-539 CNS = system: SF-539 CNS
IGROV1 ovarian = system: IGROV1 ovarian
CAKI-1 renal = system: CAKI-1 renal
TK-10 renal = system: TK-10 renal
UACC-62 melanoma = system: UACC-62 melanoma
MDA-MB-231 breast = system: MDA-MB-231 breast
DU-145 prostate = system: DU-145 prostate
UACC-257 melanoma = system: UACC-257 melanoma
ACHN renal = system: ACHN renal
A498 renal = system: A498 renal
HCT-116 colon = system: HCT-116 colon
SW-620 colon = system: SW-620 colon
K-562 leukemia = system: K-562 leukemia
RPMI-8226 leukemia = system: RPMI-8226 leukemia
HS 578T breast = system: HS 578T breast
UO-31 renal = system: UO-31 renal
HL-60(TB) leukemia = system: HL-60(TB) leukemia
SF-295 CNS = system: SF-295 CNS
SNB-75 CNS = system: SNB-75 CNS
SK-MEL-28 melanoma = system: SK-MEL-28 melanoma
CCRF-CEM leukemia = system: CCRF-CEM leukemia
SK-OV-3 ovarian = system: SK-OV-3 ovarian
SNB-19 CNS = system: SNB-19 CNS
SK-MEL-2 melanoma = system: SK-MEL-2 melanoma
786-0 renal = system: 786-0 renal
MDA-MB-435 = system: MDA-MB-435
EKVX NSCLC = system: EKVX NSCLC
SK-MEL-5 melanoma = system: SK-MEL-5 melanoma
LOX IMVI melanoma = system: LOX IMVI melanoma
SF-268 CNS = system: SF-268 CNS
OVCAR-4 ovarian = system: OVCAR-4 ovarian
T-47D breast = system: T-47D breast
BT-549 breast = system: BT-549 breast
MDA-N = system: MDA-N
M14 melanoma = system: M14 melanoma
OVCAR-8 ovarian = system: OVCAR-8 ovarian
U251 CNS = system: U251 CNS
HOP-62 NSCLC = system: HOP-62 NSCLC
MOLT-4 leukemia = system: MOLT-4 leukemia
NCI-H460 lung = system: NCI-H460 lung
MCF7 breast = system: MCF7 breast
PC-3 prostate = system: PC-3 prostate
SN12C renal = system: SN12C renal
HCT-15 colon = system: HCT-15 colon
OVCAR-3 ovarian = system: OVCAR-3 ovarian
KM12 colon = system: KM12 colon
SR leukemia = system: SR leukemia
HCC-2998 colon = system: HCC-2998 colon
NCI/ADR-RES ovarian = system: NCI/ADR-RES ovarian
HOP-92 NSCLC = system: HOP-92 NSCLC

SMILES: CN(C)CCNC(=O)c1cnn(C)c1[N+](=O)[O-]
- TGI (HT29 colon): > 100 µM
- TGI (RXF 393 renal): > 100 µM
- TGI (OVCAR-5 ovarian): > 100 µM
- TGI (COLO 205 colon): 47.8 µM
- TGI (MALME-3M melanoma): 36.1 µM
- TGI (NCI-H226 lung): > 100 µM
- TGI (NCI-H522 lung): > 100 µM
- TGI (A549 NSCLC): > 100 µM
- TGI (NCI-H23 lung): > 100 µM
- TGI (SF-539 CNS): > 100 µM
- TGI (IGROV1 ovarian): > 100 µM
- TGI (CAKI-1 renal): > 100 µM
- TGI (TK-10 renal): > 100 µM
- TGI (UACC-62 melanoma): > 100 µM
- TGI (MDA-MB-231 breast): > 100 µM
- TGI (DU-145 prostate): > 100 µM
- TGI (UACC-257 melanoma): > 100 µM
- TGI (ACHN renal): > 100 µM
- TGI (A498 renal): > 100 µM
- TGI (HCT-116 colon): > 100 µM
- TGI (SW-620 colon): > 100 µM
- TGI (K-562 leukemia): > 100 µM
- TGI (RPMI-8226 leukemia): > 100 µM
- TGI (HS 578T breast): > 100 µM
- TGI (UO-31 renal): > 100 µM
- TGI (HL-60(TB) leukemia): > 100 µM
- TGI (SF-295 CNS): > 100 µM
- TGI (SNB-75 CNS): > 100 µM
- TGI (SK-MEL-28 melanoma): > 100 µM
- TGI (CCRF-CEM leukemia): > 100 µM
- TGI (SK-OV-3 ovarian): > 100 µM
- TGI (SNB-19 CNS): > 100 µM
- TGI (SK-MEL-2 melanoma): > 100 µM
- TGI (786-0 renal): > 100 µM
- TGI (MDA-MB-435): > 100 µM
- TGI (EKVX NSCLC): > 100 µM
- TGI (SK-MEL-5 melanoma): > 100 µM
- TGI (LOX IMVI melanoma): > 100 µM
- TGI (SF-268 CNS): > 100 µM
- TGI (OVCAR-4 ovarian): > 100 µM
- TGI (T-47D breast): > 100 µM
- TGI (BT-549 breast): > 100 µM
- TGI (MDA-N): > 100 µM
- TGI (M14 melanoma): > 100 µM
- TGI (OVCAR-8 ovarian): > 100 µM
- TGI (U251 CNS): > 100 µM
- TGI (HOP-62 NSCLC): > 100 µM
- TGI (MOLT-4 leukemia): > 100 µM
- TGI (NCI-H460 lung): > 100 µM
- TGI (MCF7 breast): > 100 µM
- TGI (PC-3 prostate): > 100 µM
- TGI (SN12C renal): > 100 µM
- TGI (HCT-15 colon): > 100 µM
- TGI (OVCAR-3 ovarian): 70.6 µM
- TGI (KM12 colon): > 100 µM
- TGI (SR leukemia): > 100 µM
- TGI (HCC-2998 colon): > 100 µM

SMILES: O=C1OC(c2ccccc2)=N/C1=C\c1ccc(F)cc1
- TGI (HT29 colon): > 100 µM
- TGI (RXF 393 renal): > 100 µM
- TGI (OVCAR-5 ovarian): > 100 µM
- TGI (COLO 205 colon): > 100 µM
- TGI (NCI-H226 lung): > 100 µM
- TGI (NCI-H522 lung): > 100 µM
- TGI (A549 NSCLC): > 100 µM
- TGI (NCI-H23 lung): > 100 µM
- TGI (IGROV1 ovarian): > 100 µM
- TGI (CAKI-1 renal): > 100 µM
- TGI (TK-10 renal): > 100 µM
- TGI (UACC-62 melanoma): > 100 µM
- TGI (MDA-MB-231 breast): > 100 µM
- TGI (DU-145 prostate): > 100 µM
- TGI (UACC-257 melanoma): > 100 µM
- TGI (ACHN renal): > 100 µM
- TGI (A498 renal): > 100 µM
- TGI (HCT-116 colon): > 100 µM
- TGI (SW-620 colon): > 100 µM
- TGI (K-562 leukemia): > 100 µM
- TGI (RPMI-8226 leukemia): > 100 µM
- TGI (HS 578T breast): > 100 µM
- TGI (UO-31 renal): > 100 µM
- TGI (HL-60(TB) leukemia): > 100 µM
- TGI (SNB-75 CNS): > 100 µM
- TGI (SK-MEL-28 melanoma): > 100 µM
- TGI (CCRF-CEM leukemia): > 100 µM
- TGI (SK-OV-3 ovarian): > 100 µM
- TGI (SNB-19 CNS): > 100 µM
- TGI (SK-MEL-2 melanoma): > 100 µM
- TGI (786-0 renal): > 100 µM
- TGI (MDA-MB-435): > 100 µM
- TGI (EKVX NSCLC): > 100 µM
- TGI (NCI/ADR-RES ovarian): > 100 µM
- TGI (SK-MEL-5 melanoma): > 100 µM
- TGI (LOX IMVI melanoma): > 100 µM
- TGI (SF-268 CNS): > 100 µM
- TGI (OVCAR-4 ovarian): > 100 µM
- TGI (T-47D breast): > 100 µM
- TGI (BT-549 breast): > 100 µM
- TGI (MDA-N): > 100 µM
- TGI (M14 melanoma): > 100 µM
- TGI (OVCAR-8 ovarian): > 100 µM
- TGI (U251 CNS): > 100 µM
- TGI (HOP-62 NSCLC): > 100 µM
- TGI (MOLT-4 leukemia): > 100 µM
- TGI (NCI-H460 lung): > 100 µM
- TGI (PC-3 prostate): > 100 µM
- TGI (SN12C renal): > 100 µM
- TGI (HCT-15 colon): > 100 µM
- TGI (HOP-92 NSCLC): > 100 µM
- TGI (OVCAR-3 ovarian): > 100 µM
- TGI (KM12 colon): > 100 µM
- TGI (SR leukemia): > 100 µM
- TGI (HCC-2998 colon): > 100 µM

SMILES: CN(C)CCNC(=O)c1cc([N+](=O)[O-])cn1C
- TGI (HT29 colon): > 100 µM
- TGI (RXF 393 renal): > 100 µM
- TGI (OVCAR-5 ovarian): > 100 µM
- TGI (COLO 205 colon): > 100 µM
- TGI (MALME-3M melanoma): > 100 µM
- TGI (NCI-H226 lung): > 100 µM
- TGI (NCI-H522 lung): > 100 µM
- TGI (A549 NSCLC): > 100 µM
- TGI (NCI-H23 lung): > 100 µM
- TGI (SF-539 CNS): > 100 µM
- TGI (IGROV1 ovarian): > 100 µM
- TGI (CAKI-1 renal): > 100 µM
- TGI (TK-10 renal): > 100 µM
- TGI (UACC-62 melanoma): > 100 µM
- TGI (MDA-MB-231 breast): > 100 µM
- TGI (DU-145 prostate): > 100 µM
- TGI (UACC-257 melanoma): > 100 µM
- TGI (ACHN renal): > 100 µM
- TGI (A498 renal): > 100 µM
- TGI (HCT-116 colon): > 100 µM
- TGI (SW-620 colon): > 100 µM
- TGI (K-562 leukemia): > 100 µM
- TGI (RPMI-8226 leukemia): > 100 µM
- TGI (HS 578T breast): > 100 µM
- TGI (UO-31 renal): > 100 µM
- TGI (HL-60(TB) leukemia): > 100 µM
- TGI (SF-295 CNS): > 100 µM
- TGI (SNB-75 CNS): > 100 µM
- TGI (SK-MEL-28 melanoma): > 100 µM
- TGI (CCRF-CEM leukemia): > 100 µM
- TGI (SK-OV-3 ovarian): > 100 µM
- TGI (SNB-19 CNS): > 100 µM
- TGI (SK-MEL-2 melanoma): > 100 µM
- TGI (786-0 renal): > 100 µM
- TGI (MDA-MB-435): > 100 µM
- TGI (EKVX NSCLC): > 100 µM
- TGI (SK-MEL-5 melanoma): > 100 µM
- TGI (LOX IMVI melanoma): > 100 µM
- TGI (SF-268 CNS): > 100 µM
- TGI (OVCAR-4 ovarian): > 100 µM
- TGI (T-47D breast): > 100 µM
- TGI (BT-549 breast): > 100 µM
- TGI (MDA-N): > 100 µM
- TGI (M14 melanoma): > 100 µM
- TGI (OVCAR-8 ovarian): > 100 µM
- TGI (U251 CNS): > 100 µM
- TGI (HOP-62 NSCLC): > 100 µM
- TGI (MOLT-4 leukemia): > 100 µM
- TGI (NCI-H460 lung): > 100 µM
- TGI (MCF7 breast): > 100 µM
- TGI (PC-3 prostate): > 100 µM
- TGI (SN12C renal): > 100 µM
- TGI (HCT-15 colon): > 100 µM
- TGI (OVCAR-3 ovarian): > 100 µM
- TGI (KM12 colon): > 100 µM
- TGI (SR leukemia): > 100 µM
- TGI (HCC-2998 colon): > 100 µM
